{
  "source": "patent US20120004193A1",
  "about": "“PROCESS FOR PRODUCTION OF ORALLY INGESTIBLE COMPOSITION CONTAINING ARABINOFURANOSYL VITEXIN, AND USE OF THE COMPOSITION” (Fuji Sangyo Co., Ltd., priority 2009, published 2012)",
  "test_system": "ICR mice",
  "assay": "Sedative and sleep-inducing activities in thiopental sodium-treated mice",
  "format": "in vivo, mouse",
  "details": "100 mg/kg body weight oral, thiopental sodium 30 mg/kg i.p. 45 minutes later, measured over 40 minutes, compared with negative control group, p<0.01 (Dunnet)",
  "procedure": "The arabinofuranosyl vitexin-isolated product obtained in the above-mentioned procedure (1) was used to study sedative and sleep-inducing effects. A sample was orally administered to six ICR mice (body weight: 40 to 45 g).\nAs the sample, the ‘arabinofuranosyl vitexin (100 mg/kg body weight)’ dissolved in physiological saline was orally administered. It should be noted that ‘diazepam (2 mg/kg body weight)’ having a sleep-inducing effect was dissolved in physiological saline and orally administered as a positive control, and ‘physiological saline alone’ was orally administered as a negative control.\nThen, 45 minutes after the oral administration of the sample, thiopental sodium (30 mg/kg body weight) […] was administered intraperitoneally, and the mice were individually placed in mouse cages (17 cm×27 cm).\nIn a period from the start of the administration of thiopental sodium to 40 minutes later, a total time when a mouse stopped moving for one or more minutes and got in a sleep state was measured to evaluate the sedative and sleep-inducing effects.\nIt should be noted that the symbol in FIG. 2 represents that there is a significant difference compared with the negative control group at a risk rate of less than 1% (p<0.01) by a Dunnet multiple comparison assay.",
  "data": [
    {"smiles": "O=c1cc(-c2ccc(O)cc2)oc2c(C3OC(CO)C(O)C(O)C3OC3OC(CO)C(O)C3O)c(O)cc(O)c12", "note": "[arabinofuranosyl vitexin, 2″-O-α-D-arabinofuranosyl vitexin]", "values": [
      {"measurement": "sedation and sleeping times (total time when a mouse stopped moving for one or more minutes and got in a sleep state)", "result": "extended significantly"}
    ]}
  ]
}
